Experimental data reported in patent US12202805B2, “Process for preparing (5S)-{[2-(4-carboxyphenyl)ethyl] |2-(2-{|3-chloro-4'-(trifluoromethyl)biphenyl-4-yl]methoxy}phenyl)ethyl]aminol-5,6,7,8-tetrahydroquinoline-2-carboxylic acid and its crystalline forms for use as pharmaceutically active compound” (Bayer Aktiengesellschaft, priority 2021, dated 2025).
Values joined by “and” are separate entries in the source; they are usually repeats but may differ in a detail not shown here. Identical values can stand only once.

Tested on: thromboxane A2 challenged PAH-minipig
Test: Haemodynamics in the anesthetized thromboxane challenged minipig, intratracheal dry powder (PAP, BP)
Assay type: in vivo, Göttingen Minipigs
Description: Healthy Göttingen Minipigs® Ellegaard (Ellegaard, Denmark) of both sexes and having a weight of 2-6 kg were used. The animals were sedated by i.m. administration of about 25 mg/kg ketamine and about 10 mg/kg azaperone. Anaesthesia was initiated by i.v. administration of about 2 mg/kg ketamine and about 0.3 mg/kg midazolam. Maintenance of anaesthesia was by i.v. administration of about 7.5-30 mg/kg/h ketamine and about 1-4 mg/kg/h midazolam (rate of infusion 1-4 ml/kg/h) and about 150 μg/kg/h pancuronium bromide (for example Pancuronium-Actavis). After intubation, the animals were ventilated by the ventilator at a constant respiratory volume (10-12 ml/kg, 35 breaths/min; Avea®, Viasys Healthcare, USA, or Engström Carestation, GE Healthcare, Freiburg, Germany) such that an end-tidal CO2 concentration of about 5% was achieved. Ventilation was performed with room air, enriched with about 40% oxygen (normoxia). For the measurement of the haemodynamic parameters such as pulmonary arterial pressure (PAP), blood pressure (BP) and heart rate (HR), catheters were inserted into the carotid artery to measure the blood pressure, and a Swan-Ganz® catheter was introduced in a flow-directed manner via the jugular vein into the pulmonary artery. The haemodynamic signals were recorded and evaluated by means of pressure transducers (Combitransducer, B. Braun, Melsungen, Germany)/amplifiers and Ponemah® as data acquisition software.
As reference pure Lactose vehicle was applied in the beginning of each experiment.

O.O=C(O)c1ccc(CCN(CCc2ccccc2OCc2ccc(-c3ccc(C(F)(F)F)cc3)cc2Cl)[C@H]2CCCc3nc(C(=O)O)ccc32)cc1.O=C(O)c1ccc(CCN(CCc2ccccc2OCc2ccc(-c3ccc(C(F)(F)F)cc3)cc2Cl)[C@H]2CCCc3nc(C(=O)O)ccc32)cc1 [example 6a, (5S)—{[2-(4-Carboxyphenyl)ethyl][2-(2-{[3-chloro-4′-(trifluoromethyl)biphenyl-4-yl]methoxy}phenyl)-ethyl]amino}-5,6,7,8-tetrahydroquinoline-2-carboxylic acid semihydrate]
systemic blood pressure (375 μg/kg i.t., within the last hour of the observation interval): slightly affected
efficacy with regard to PAP reduction as well as systemic BP reduction (micronized hydrates, 1.5 mg/4 kg (=375 μg/kg) i.t.): comparable efficacy
BP (mean) (time 0 min, 375 μg/kg i.t.): 101 mmHg and 85 mmHg
PAP(mean) (time 0 min, 375 μg/kg i.t.): 39.6 mmHg and 40.8 mmHg and 38.5 mmHg
BP (mean) (time 10 min, 375 μg/kg i.t.): 103 mmHg and 83 mmHg and 79 mmHg
PAP(mean) (time 10 min, 375 μg/kg i.t.): 40.2 mmHg and 41.1 mmHg
BP (mean) (time 20 min, 375 μg/kg i.t.): 101 mmHg and 83 mmHg and 84 mmHg
PAP(mean) (time 20 min, 375 μg/kg i.t.): 40.4 mmHg and 41.3 mmHg
BP (mean) (time 30 min, 375 μg/kg i.t.): 100 mmHg and 81 mmHg and 88 mmHg
PAP(mean) (time 30 min, 375 μg/kg i.t.): 40.2 mmHg and 41.3 mmHg
BP (mean) (time 40 min, 375 μg/kg i.t.): 98 mmHg and 81 mmHg and 90 mmHg
PAP(mean) (time 40 min, 375 μg/kg i.t.): 40.4 mmHg and 41.8 mmHg and 41.0 mmHg
BP (mean) (time 50 min, 375 μg/kg i.t.): 99 mmHg and 78 mmHg and 89 mmHg
PAP(mean) (time 50 min, 375 μg/kg i.t.): 40.7 mmHg and 41.7 mmHg and 40.9 mmHg
BP (mean) (time 60 min, 375 μg/kg i.t.): 100 mmHg and 79 mmHg and 86 mmHg
BP, % changes vs. prevalues (time 60 min, 375 μg/kg i.t.): 100.6% and 99.7% and 97.2%
PAP(mean) (time 60 min, 375 μg/kg i.t.): 41.2 mmHg and 42.0 mmHg and 40.9 mmHg
PAP, % changes vs. prevalues (time 60 min, 375 μg/kg i.t.): 100.7% and 99.4% and 99.2%
BP (mean) (time 70 min, 375 μg/kg i.t.): 102 mmHg and 78 mmHg and 87 mmHg
BP, % changes vs. prevalues (time 70 min, 375 μg/kg i.t.): 102.6% and 98.4%
PAP(mean) (time 70 min, 375 μg/kg i.t.): 38.8 mmHg and 40.6 mmHg and 40.1 mmHg
PAP, % changes vs. prevalues (time 70 min, 375 μg/kg i.t.): 94.7% and 96.1% and 97.0%
BP (mean) (time 80 min, 375 μg/kg i.t.): 102 mmHg and 79 mmHg and 90 mmHg
BP, % changes vs. prevalues (time 80 min, 375 μg/kg i.t.): 102.6% and 99.7% and 101.8%
PAP(mean) (time 80 min, 375 μg/kg i.t.): 34.1 mmHg and 39.9 mmHg and 37.7 mmHg
PAP, % changes vs. prevalues (time 80 min, 375 μg/kg i.t.): 83.4% and 94.5% and 91.2%
BP (mean) (time 90 min, 375 μg/kg i.t.): 101 mmHg and 81 mmHg and 92 mmHg
BP, % changes vs. prevalues (time 90 min, 375 μg/kg i.t.): 101.6% and 102.2% and 104.0%
PAP(mean) (time 90 min, 375 μg/kg i.t.): 30.1 mmHg and 37.7 mmHg and 36.6 mmHg
PAP, % changes vs. prevalues (time 90 min, 375 μg/kg i.t.): 73.4% and 89.2% and 88.7%
BP (mean) (time 100 min, 375 μg/kg i.t.): 100 mmHg and 80 mmHg and 95 mmHg
BP, % changes vs. prevalues (time 100 min, 375 μg/kg i.t.): 100.6% and 101.0% and 107.4%
PAP(mean) (time 100 min, 375 μg/kg i.t.): 28.3 mmHg and 35.9 mmHg and 35.0 mmHg
PAP, % changes vs. prevalues (time 100 min, 375 μg/kg i.t.): 69.0% and 85.0% and 84.7%
BP (mean) (time 110 min, 375 μg/kg i.t.): 99 mmHg and 79 mmHg
BP, % changes vs. prevalues (time 110 min, 375 μg/kg i.t.): 99.6% and 99.7% and 111.9%
PAP(mean) (time 110 min, 375 μg/kg i.t.): 27.2 mmHg and 34.8 mmHg and 34.0 mmHg
PAP, % changes vs. prevalues (time 110 min, 375 μg/kg i.t.): 66.5% and 82.4% and 82.1%
BP (mean) (time 120 min, 375 μg/kg i.t.): 99 mmHg and 79 mmHg and 96 mmHg
BP, % changes vs. prevalues (time 120 min, 375 μg/kg i.t.): 99.6% and 99.7% and 108.6%
PAP(mean) (time 120 min, 375 μg/kg i.t.): 26.4 mmHg and 34.1 mmHg and 32.9 mmHg
PAP, % changes vs. prevalues (time 120 min, 375 μg/kg i.t.): 64.4% and 80.8% and 79.7%
BP (mean) (time 130 min, 375 μg/kg i.t.): 98 mmHg and 81 mmHg and 97 mmHg
BP, % changes vs. prevalues (time 130 min, 375 μg/kg i.t.): 98.6% and 102.2% and 109.7%
PAP(mean) (time 130 min, 375 μg/kg i.t.): 25.7 mmHg and 33.7 mmHg and 31.7 mmHg
PAP, % changes vs. prevalues (time 130 min, 375 μg/kg i.t.): 62.8% and 79.9% and 76.7%
BP (mean) (time 140 min, 375 μg/kg i.t.): 99 mmHg and 82 mmHg and 98 mmHg
BP, % changes vs. prevalues (time 140 min, 375 μg/kg i.t.): 99.6% and 103.5% and 110.8%
PAP(mean) (time 140 min, 375 μg/kg i.t.): 25.3 mmHg and 33.2 mmHg and 31.3 mmHg
PAP, % changes vs. prevalues (time 140 min, 375 μg/kg i.t.): 61.8% and 78.7% and 75.7%
BP (mean) (time 150 min, 375 μg/kg i.t.): 97 mmHg and 82 mmHg
BP, % changes vs. prevalues (time 150 min, 375 μg/kg i.t.): 97.6% and 103.5% and 109.7%
PAP(mean) (time 150 min, 375 μg/kg i.t.): 25.0 mmHg and 32.9 mmHg and 30.7 mmHg
PAP, % changes vs. prevalues (time 150 min, 375 μg/kg i.t.): 60.9% and 78.0% and 74.3%
BP (mean) (time 160 min, 375 μg/kg i.t.): 96 mmHg and 81 mmHg and 97 mmHg
BP, % changes vs. prevalues (time 160 min, 375 μg/kg i.t.): 96.6% and 102.2% and 109.7%
PAP(mean) (time 160 min, 375 μg/kg i.t.): 24.5 mmHg and 32.5 mmHg and 30.2 mmHg
